Data published in patent US10259810B2, “N-sulfonylated pyrazolo[3,4-b]pyridin-6-carboxamides and method of use” (AbbVie S.à.r.l., priority 2015, dated 2019).

Columns and labels:
[1] = molecular target: T1, ΔF508-CFTR (Homo sapiens, UniProt P13569, DEL508-508); assay: CFTR cell surface levels using HRP-tagged ΔF508-CFTR expressing CFBE cells, intrinsic corrector capacity; assay type: cell-based; set-up: % Activation: concentration or dose not given beside the values
T1 construct: host or cells: CFBE41o-, doxycycline-inducible
Procedure, shortened: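 Surface ΔF508-CFTR was measured as HRP chemiluminescence from an extracellular-loop-4 tag, expressed as percent activity between DMSO and a […] corrector control.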

[2] = molecular target: T1, ΔF508-CFTR; assay: CFTR cell surface levels using HRP-tagged ΔF508-CFTR expressing CFBE cells, in the presence of a co-corrector; assay type: cell-based
Procedure, shortened: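 Chemiluminescent read-out of surface HRP (15 min, dark) after PBS washes. Activity is normalized as 100×(sample−DMSO)/(3 μM co-corrector alone−DMSO).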

[3] = HRP-tagged ΔF508-CFTR expressing CFBE41o- cells, compound alone (intrinsic corrector capacity), 20 hours at 33° C.
[4] = HRP-tagged ΔF508-CFTR expressing CFBE41o- cells, compound alone (intrinsic corrector capacity), 20 hours at 33° C., read-out: EC50
[5] = HRP-tagged ΔF508-CFTR CFBE cells, in the presence of 3 μM co-corrector
[6] = HRP-tagged ΔF508-CFTR CFBE cells, in the presence of 3 μM co-corrector, read-out: EC50

T1 sequence (P13569 with tags, fused parts or gaps DEL508-508): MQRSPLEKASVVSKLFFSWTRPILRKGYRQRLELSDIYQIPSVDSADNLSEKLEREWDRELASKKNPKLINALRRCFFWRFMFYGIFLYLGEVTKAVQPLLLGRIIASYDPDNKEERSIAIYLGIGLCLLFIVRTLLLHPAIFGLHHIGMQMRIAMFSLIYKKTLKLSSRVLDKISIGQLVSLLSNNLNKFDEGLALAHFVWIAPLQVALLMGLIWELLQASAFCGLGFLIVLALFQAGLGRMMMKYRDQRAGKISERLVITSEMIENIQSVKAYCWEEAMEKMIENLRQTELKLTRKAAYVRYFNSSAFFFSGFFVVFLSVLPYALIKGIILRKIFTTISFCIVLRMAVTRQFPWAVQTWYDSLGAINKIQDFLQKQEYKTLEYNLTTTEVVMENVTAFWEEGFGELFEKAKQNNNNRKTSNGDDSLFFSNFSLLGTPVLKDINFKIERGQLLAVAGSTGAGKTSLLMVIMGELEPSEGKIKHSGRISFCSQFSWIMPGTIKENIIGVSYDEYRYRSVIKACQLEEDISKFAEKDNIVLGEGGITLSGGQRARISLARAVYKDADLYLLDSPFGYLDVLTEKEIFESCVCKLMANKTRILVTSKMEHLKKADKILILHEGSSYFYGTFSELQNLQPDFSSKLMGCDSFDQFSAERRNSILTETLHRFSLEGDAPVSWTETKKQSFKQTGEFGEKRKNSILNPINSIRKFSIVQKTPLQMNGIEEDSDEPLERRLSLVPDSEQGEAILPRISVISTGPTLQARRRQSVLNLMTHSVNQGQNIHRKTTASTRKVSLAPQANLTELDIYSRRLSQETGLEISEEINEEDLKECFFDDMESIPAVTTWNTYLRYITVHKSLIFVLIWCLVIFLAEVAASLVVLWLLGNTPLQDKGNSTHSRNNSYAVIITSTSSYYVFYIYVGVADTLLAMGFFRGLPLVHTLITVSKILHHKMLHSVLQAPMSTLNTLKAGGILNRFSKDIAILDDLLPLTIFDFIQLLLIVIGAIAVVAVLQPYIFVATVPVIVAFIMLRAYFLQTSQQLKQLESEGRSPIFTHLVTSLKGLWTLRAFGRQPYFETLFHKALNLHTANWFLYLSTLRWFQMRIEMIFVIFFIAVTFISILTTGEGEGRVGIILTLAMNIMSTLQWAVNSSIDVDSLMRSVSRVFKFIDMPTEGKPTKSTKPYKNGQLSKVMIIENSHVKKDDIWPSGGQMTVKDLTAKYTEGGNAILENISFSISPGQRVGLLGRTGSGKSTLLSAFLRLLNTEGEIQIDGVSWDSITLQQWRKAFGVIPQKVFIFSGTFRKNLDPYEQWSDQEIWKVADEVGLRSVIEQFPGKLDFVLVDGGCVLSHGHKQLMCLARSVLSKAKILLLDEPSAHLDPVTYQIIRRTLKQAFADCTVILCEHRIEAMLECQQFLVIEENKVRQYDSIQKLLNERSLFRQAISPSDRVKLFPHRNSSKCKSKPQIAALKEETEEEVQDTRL

Compound: CC(C)c1nn(-c2ccnc(N3CCOCC3)c2)c2nc(C(=O)NS(C)(=O)=O)cc(-c3ccc(N4CCC(C#N)CC4)nc3)c12 [Compound 227, 4-[6-(4-cyanopiperidin-1-yl)pyridin-3-yl]-N-(methanesulfonyl)-1-[2-(morpholin-4-yl)pyridin-4-yl]-3-(propan-2-yl)-1H-pyrazolo[3,4-b]pyridine-6-carboxamide]
- % Activation [1, 3]: 216.8%
- EC50 [1, 4]: 449 nM
- % Activation [2, 5]: 378.2%
- EC50 [2, 6]: 307 nM

Compound: COC1CCN(c2cc(C(=O)NS(=O)(=O)CC(F)(F)F)nc3c2c(C2CCC2)nn3-c2ccccc2)CC1 [Compound 176, 3-cyclobutyl-4-(4-methoxypiperidin-1-yl)-1-phenyl-N-(2,2,2-trifluoroethanesulfonyl)-1H-pyrazolo[3,4-b]pyridine-6-carboxamide]
- % Activation [1, 3]: 190.4%
- EC50 [1, 4]: 337 nM
- % Activation [2, 5]: 390.43%
- EC50 [2, 6]: 209 nM

Compound: O=C(NS(=O)(=O)C1CC1)c1cc(N2CCC(CN3CCCC3)CC2)c2c(C3CCC3)nn(-c3ccccc3)c2n1 [Compound 462, 3-cyclobutyl-N-(cyclopropanesulfonyl)-1-phenyl-4-{4-[(pyrrolidin-1-yl)methyl]piperidin-1-yl}-1H-pyrazolo[3,4-b]pyridine-6-carboxamide]
- % Activation [1, 3]: 317.4%
- EC50 [1, 4]: 776 nM
- % Activation [2, 5]: 495.1%
- EC50 [2, 6]: 107 nM

Compound: Cc1cccc(-n2nc(C3CCC3)c3c(N4CCC(N5CCOCC5)CC4)cc(C(=O)NS(=O)(=O)N(C)C)nc32)c1 [Compound 498, 3-cyclobutyl-N-(dimethylsulfamoyl)-1-(3-methylphenyl)-4-[4-(morpholin-4-yl)piperidin-1-yl]-1H-pyrazolo[3,4-b]pyridine-6-carboxamide]
- % Activation [1, 3]: 288.1%
- EC50 [1, 4]: 144 nM
- % Activation [2, 5]: 456.3%
- EC50 [2, 6]: 95.1 nM

Compound: CCS(=O)(=O)NC(=O)c1cc(N2CCC(CN3CCCC3)CC2)c2c(C3CCC3)nn(-c3ccccc3)c2n1 [Compound 463, 3-cyclobutyl-N-(ethanesulfonyl)-1-phenyl-4-{4-[(pyrrolidin-1-yl)methyl]piperidin-1-yl}-1H-pyrazolo[3,4-b]pyridine-6-carboxamide]
- % Activation [1, 3]: 263.9%
- EC50 [1, 4]: 419 nM
- % Activation [2, 5]: 490.6%
- EC50 [2, 6]: 194 nM

Compound: CN(C(=O)c1cc(N2CCC(CN3CCCC3)CC2)c2c(C3CCC3)nn(-c3ccccc3)c2n1)S(C)(=O)=O [Compound 662, 3-cyclobutyl-N-(methanesulfonyl)-N-methyl-1-phenyl-4-{4-[(pyrrolidin-1-yl)methyl]piperidin-1-yl}-1H-pyrazolo[3,4-b]pyridine-6-carboxamide]
- % Activation [1, 3]: 134.35%
- EC50 [1, 4]: 124 nM
- % Activation [2, 5]: 346.65%
- EC50 [2, 6]: 104 nM

Compound: CCOc1nccc(-n2nc(C3CCC3)c3c(N4CCC(N5CCOCC5)CC4)cc(C(=O)NS(=O)(=O)N(C)C)nc32)n1 [Compound 622, 3-cyclobutyl-N-(dimethylsulfamoyl)-1-(2-ethoxypyrimidin-4-yl)-4-[4-(morpholin-4-yl)piperidin-1-yl]-1H-pyrazolo[3,4-b]pyridine-6-carboxamide]
- % Activation [1, 3]: 89.445%
- EC50 [1, 4]: 568 nM
- % Activation [2, 5]: 251.25%
- EC50 [2, 6]: 309 nM

Compound: COC1CCCN(C2CCN(c3cc(C(=O)NS(C)(=O)=O)nc4c3c(C3CCC3)nn4-c3ccc(F)cc3)CC2)C1 (stereo not drawn) [Compound 587, 3-cyclobutyl-1-(4-fluorophenyl)-N-(methanesulfonyl)-4-(3-methoxy[1,4'-bipiperidin]-1'-yl)-1H-pyrazolo[3,4-b]pyridine-6-carboxamide]
- % Activation [1, 3]: 277.1%
- EC50 [1, 4]: 235 nM
- % Activation [2, 5]: 504.6%
- EC50 [2, 6]: 398 nM

Compound: COC1(C)CCN(c2cc(C(=O)NS(C)(=O)=O)nc3c2c(C(C)C)nn3-c2ccc(F)cc2)CC1 [Compound 173, 1-(4-fluorophenyl)-N-(methanesulfonyl)-4-(4-methoxy-4-methylpiperidin-1-yl)-3-(propan-2-yl)-1H-pyrazolo[3,4-b]pyridine-6-carboxamide]
- % Activation [1, 3]: 51.395%
- EC50 [1, 4]: 412 nM
- % Activation [2, 5]: 183.2%
- EC50 [2, 6]: 433 nM

Compound: COc1ccc(-c2cc(C(=O)NS(C)(=O)=O)nc3c2c(C)nn3-c2ccc(C)c(Cl)c2)cc1 [Compound 18, 1-(3-chloro-4-methylphenyl)-N-(methanesulfonyl)-4-(4-methoxyphenyl)-3-methyl-1H-pyrazolo[3,4-b]pyridine-6-carboxamide]
- % Activation [1, 3]: 64.675%
- EC50 [1, 4]: 2270 nM
- % Activation [2, 5]: 217.8%
- EC50 [2, 6]: 1110 nM

Compound: COC[C@H]1CCCN1S(=O)(=O)NC(=O)c1cc(N2CCC(N3CCOCC3)CC2)c2c(C3CCC3)nn(-c3ccc(F)cc3)c2n1 [Compound 577, 3-cyclobutyl-1-(4-fluorophenyl)-N-[(2R)-2-(methoxymethyl)pyrrolidine-1-sulfonyl]-4-[4-(morpholin-4-yl)piperidin-1-yl]-1H-pyrazolo[3,4-b]pyridine-6-carboxamide]
- % Activation [1, 3]: 187.15%
- EC50 [1, 4]: 257 nM
- % Activation [2, 5]: 379.3%
- EC50 [2, 6]: 105 nM

Compound: CS(=O)(=O)NC(=O)c1cc(OCC2CCCO2)c2c(C3CCC3)nn(-c3ccccc3)c2n1 (stereo not drawn) [Compound 283, 3-cyclobutyl-N-(methanesulfonyl)-4-[(oxolan-2-yl)methoxy]-1-phenyl-1H-pyrazolo[3,4-b]pyridine-6-carboxamide]
- % Activation [1, 3]: 141.2%
- EC50 [1, 4]: 477 nM
- % Activation [2, 5]: 326.85%
- EC50 [2, 6]: 265 nM

Compound: COC1CCN(Cc2ccc(-c3cc(C(=O)NS(C)(=O)=O)nc4c3c(OC(C)C)nn4C3CCCCC3)cc2)CC1 [Compound 635, 1-cyclohexyl-N-(methanesulfonyl)-4-{4-[(4-methoxypiperidin-1-yl)methyl]phenyl}-3-[(propan-2-yl)oxy]-1H-pyrazolo[3,4-b]pyridine-6-carboxamide]
- % Activation [1, 3]: 216.38%
- EC50 [1, 4]: 155 nM
- % Activation [2, 5]: 449.25%
- EC50 [2, 6]: 73.9 nM

Compound: CCOC(=O)N1CCC(c2cc(C(=O)NS(C)(=O)=O)nc3c2c(C(C)C)nn3-c2ccc(F)cc2)CC1 [Compound 496, ethyl 4-[1-(4-fluorophenyl)-6-[(methanesulfonyl)carbamoyl]-3-(propan-2-yl)-1H-pyrazolo[3,4-b]pyridin-4-yl]piperidine-1-carboxylate]
- % Activation [1, 3]: 199.9%
- EC50 [1, 4]: 282 nM
- % Activation [2, 5]: 374.65%
- EC50 [2, 6]: 243 nM

Compound: CCS(=O)(=O)NC(=O)c1cc(-c2cnc(N(C)C)nc2)c2c(C3CN(C(=O)OC)C3)nn(C3CCCCC3)c2n1 [Compound 52, methyl 3-{1-cyclohexyl-4-[2-(dimethylamino)pyrimidin-5-yl]-6-[(ethanesulfonyl)carbamoyl]-1H-pyrazolo[3,4-b]pyridin-3-yl}azetidine-1-carboxylate]
- % Activation [1, 3]: 75.755%
- EC50 [1, 4]: 1150 nM
- % Activation [2, 5]: 257.85%
- EC50 [2, 6]: 992 nM

Compound: CCCN(C)S(=O)(=O)NC(=O)c1cc(OCC2CCOCC2)c2c(C3CCC3)nn(-c3ccccc3)c2n1 [Compound 354, 3-cyclobutyl-N-[methyl(propyl)sulfamoyl]-4-[(oxan-4-yl)methoxy]-1-phenyl-1H-pyrazolo[3,4-b]pyridine-6-carboxamide]
- % Activation [1, 3]: 113.7%
- EC50 [1, 4]: 123 nM
- % Activation [2, 5]: 351%
- EC50 [2, 6]: 232 nM

Compound: O=C(NS(=O)(=O)CCCN1CCOCC1)c1cc(N2CCC(N3CCCCC3)CC2)c2c(C3CCC3)nn(-c3ccccc3)c2n1 [Compound 454, 4-([1,4′-bipiperidin]-1′-yl)-3-cyclobutyl-N-[3-(morpholin-4-yl)propane-1-sulfonyl]-1-phenyl-1H-pyrazolo[3,4-b]pyridine-6-carboxamide]
- EC50 [1]: 1670 nM
- % Activation [1, 3]: 168.1%
- EC50 [2]: 639 nM
- % Activation [2, 5]: 430.2%

Compound: CC(C)c1nn(-c2ccc(F)cc2F)c2nc(C(=O)NS(C)(=O)=O)cc(-c3ccc(N4CCC(C#N)CC4)nc3)c12 [Compound 140, 4-[6-(4-cyanopiperidin-1-yl)pyridin-3-yl]-1-(2,4-difluorophenyl)-N-(methanesulfonyl)-3-(propan-2-yl)-1H-pyrazolo[3,4-b]pyridine-6-carboxamide]
- % Activation [1, 3]: 210.3%
- EC50 [1, 4]: 734 nM
- % Activation [2, 5]: 377.9%
- EC50 [2, 6]: 381 nM

Compound: CS(=O)(=O)NC(=O)c1cc(-c2ccc(N3CCC(C#N)CC3)nc2)c2c(n1)n(-c1ccccc1)nc2[C@H]1C[C@@H](F)C1 [Compound 209, 4-[6-(4-cyanopiperidin-1-yl)pyridin-3-yl]-3-(cis-3-fluorocyclobutyl)-N-(methanesulfonyl)-1-phenyl-1H-pyrazolo[3,4-b]pyridine-6-carboxamide]
- % Activation [1, 3]: 247.6%
- EC50 [1, 4]: 381 nM
- % Activation [2, 5]: 393.6%
- EC50 [2, 6]: 231 nM

Compound: CCS(=O)(=O)NC(=O)c1cc(-c2ccc(N(C)C)nc2)c2c(C(C)C)nn(-c3cccc(N4CCOCC4)c3)c2n1 [Compound 32, 4-[6-(dimethylamino)pyridin-3-yl]-N-(ethanesulfonyl)-1-[3-(morpholin-4-yl)phenyl]-3-(propan-2-yl)-1H-pyrazolo[3,4-b]pyridine-6-carboxamide]
- % Activation [1, 3]: 277.65%
- EC50 [1, 4]: 372 nM
- % Activation [2, 5]: 526%
- EC50 [2, 6]: 234 nM

Compound: O=C(NS(=O)(=O)N1CCC(F)CC1)c1cc(N2CCC(CN3CCCC3)CC2)c2c(C3CCC3)nn(-c3ccccc3)c2n1 [Compound 459, 3-cyclobutyl-N-(4-fluoropiperidine-1-sulfonyl)-1-phenyl-4-{4-[(pyrrolidin-1-yl)methyl]piperidin-1-yl}-1H-pyrazolo[3,4-b]pyridine-6-carboxamide]
- % Activation [1, 3]: 225.65%
- EC50 [1, 4]: 149 nM
- % Activation [2, 5]: 388.87%
- EC50 [2, 6]: 96.1 nM
